US20250228865A1, “COMPOUNDS FOR ENHANCING READ THROUGH OF GENES CONTAINING PREMATURE TERMINATION CODONS AND METHODS FOR MAKING AND USING THE SAME” (Sanofi US Services Inc., priority 2022, published 2025)

Tests used:
[1] = test system: recombinant human CFTR carrying the premature stop codon (PTC) mutation G542X; assay: CFTR-PTC mutant translation readthrough, Nanoluc tagged CFTR luminescence (G542X cell line); type: cell-based; conditions: in combination with G418, G542X cell line; for CFTR G542X ACTIVITY Fold 10 μM G-418: fold over 10 μM G-418; for EC50: 16HBE cells
Method in brief: (§1)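 16HBE cells stably expressing Nanoluc-tagged human CFTR with G542X or R1162X, in medium with 3 μM VX-809, treated 48 h at 37 °C with compound (10-point, 2-fold, top 50 μM final) alone or with 10 μM G418. Live-cell Nanoluc luminescence normalised to a maximally effective G418 (125-250 μM).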

[2] = test system: recombinant human CFTR carrying the premature stop codon (PTC) mutation R1162X; assay: CFTR-PTC mutant translation readthrough, Nanoluc tagged CFTR luminescence (R1162X cell line); type: cell-based; conditions: for CFTR R1162X ACTIVITY Fold 10 μM G-418: fold over 10 μM G-418, in combination with G418; for EC50: in combination with G418, 16HBE cells, read-out: CFTR R1162X ACTIVITY EC50
Method in brief: as §1

SMILES: OCCn1ccc(Nc2ccc(OCc3c(Cl)cccc3Cl)cn2)n1 [2-[3-[[5-[(2,6-dichlorophenyl)methoxy]-2-pyridyl]amino]pyrazol-1-yl]ethanol]
- CFTR G542X ACTIVITY Fold 10 μM G-418 [1]: A′ (A′ = ≥10X)
- EC50 [1]: 1 to 10 µM
- CFTR R1162X ACTIVITY Fold 10 μM G-418 [2]: A′ (A′ = ≥10X)
- EC50 [2]: 1 to 10 µM

SMILES: OCCn1cc(-c2ccc(OCc3c(Cl)cccc3Cl)cc2)nn1 [2-[4-[4-[(2,6-dichlorophenyl)methoxy]phenyl]triazol-1-yl]ethanol]
- CFTR G542X ACTIVITY Fold 10 μM G-418 [1]: B′ (B′ = ≥5X to <10X)
- EC50 [1]: 1 to 10 µM
- CFTR R1162X ACTIVITY Fold 10 μM G-418 [2]: A′ (A′ = ≥10X)
- EC50 [2]: 1 to 10 µM

SMILES: NC(=O)CN1CCN(c2ncc(OCc3c(Cl)cccc3Cl)cn2)CC1 [2-[4-[5-[(2,6-dichlorophenyl)methoxy]pyrimidin-2-yl]piperazin-1-yl]acetamide]
- CFTR G542X ACTIVITY Fold 10 μM G-418 [1]: B′ (B′ = ≥5X to <10X)
- EC50 [1]: 1 to 10 µM
- CFTR R1162X ACTIVITY Fold 10 μM G-418 [2]: B′ (B′ = ≥5X to <10X)
- EC50 [2]: 1 to 10 µM

SMILES: OCCN1CCN(c2ncc(OCc3c(Cl)cccc3Cl)cn2)CC1 [2-[4-[5-[(2,6-dichlorophenyl)methoxy]pyrimidin-2-yl]piperazin-1-yl]ethanol]
- CFTR G542X ACTIVITY Fold 10 μM G-418 [1]: A′ (A′ = ≥10X)
- EC50 [1]: 1 to 10 µM
- CFTR R1162X ACTIVITY Fold 10 μM G-418 [2]: A′ (A′ = ≥10X)
- EC50 [2]: 1 to 10 µM

SMILES: Clc1cccc(Cl)c1COc1cnc(N2CC3(CCCOC3)C2)nc1 [2-[5-[(2,6-dichlorophenyl)methoxy]pyrimidin-2-yl]-6-oxa-2-azaspiro[3.5]nonane]
- CFTR G542X ACTIVITY Fold 10 μM G-418 [1]: A′ (A′ = ≥10X)
- EC50 [1]: < 1 µM
- CFTR R1162X ACTIVITY Fold 10 μM G-418 [2]: A′ (A′ = ≥10X)
- EC50 [2]: 1 to 10 µM

SMILES: O=C1OC(CO)CN1c1ccc(CCc2c(Cl)cccc2Cl)cc1 (centres unmarked) [3-[4-[2-(2,6-dichlorophenyl)ethyl]phenyl]-5-(hydroxymethyl)oxazolidin-2-one]
- CFTR G542X ACTIVITY Fold 10 μM G-418 [1]: C′ (C′ = <5X)
- EC50 [1]: 1 to 10 µM
- CFTR R1162X ACTIVITY Fold 10 μM G-418 [2]: B′ (B′ = ≥5X to <10X)
- EC50 [2]: > 10 µM

SMILES: O=C1OC(CO)CN1c1ccc(OCc2c(Br)cccc2Br)cc1 (centres unmarked) [3-[4-[(2,6-dibromophenyl)methoxy]phenyl]-5-(hydroxymethyl)oxazolidin-2-one]
- CFTR G542X ACTIVITY Fold 10 μM G-418 [1]: A′ (A′ = ≥10X)
- EC50 [1]: 1 to 10 µM
- CFTR R1162X ACTIVITY Fold 10 μM G-418 [2]: A′ (A′ = ≥10X)
- EC50 [2]: 1 to 10 µM

SMILES: CC(O)C1CN(c2ccc(OCc3c(Cl)cccc3Cl)cc2)C(=O)O1 (centres unmarked) [3-[4-[(2,6-dichlorophenyl)methoxy]phenyl]-5-(1-hydroxyethyl)oxazolidin-2-one]
- CFTR G542X ACTIVITY Fold 10 μM G-418 [1]: A′ (A′ = ≥10X)
- EC50 [1]: 1 to 10 µM
- CFTR R1162X ACTIVITY Fold 10 μM G-418 [2]: B′ (B′ = ≥5X to <10X)
- EC50 [2]: > 10 µM

SMILES: O=C1OC(CO)CN1c1ccc(OCc2c(Cl)cccc2Cl)cc1 (centres unmarked) [3-[4-[(2,6-dichlorophenyl)methoxy]phenyl]-5-(hydroxymethyl)oxazolidin-2-one]
- CFTR G542X ACTIVITY Fold 10 μM G-418 [1]: B′ (B′ = ≥5X to <10X)
- EC50 [1]: 1 to 10 µM
- CFTR R1162X ACTIVITY Fold 10 μM G-418 [2]: B′ (B′ = ≥5X to <10X)
- EC50 [2]: 1 to 10 µM

SMILES: O=C1OCCN1c1ccc(OCc2c(Cl)cccc2Cl)cc1 [3-[4-[(2,6-dichlorophenyl)methoxy]phenyl]oxazolidin-2-one]
- CFTR G542X ACTIVITY Fold 10 μM G-418 [1]: A′ (A′ = ≥10X)
- EC50 [1]: 1 to 10 µM
- CFTR R1162X ACTIVITY Fold 10 μM G-418 [2]: B′ (B′ = ≥5X to <10X)
- EC50 [2]: 1 to 10 µM

SMILES: O=C1COC(=O)N1c1ccc(OCc2c(Cl)cccc2Cl)cc1 [3-[4-[(2,6-dichlorophenyl)methoxy]phenyl]oxazolidine-2,4-dione]
- CFTR G542X ACTIVITY Fold 10 μM G-418 [1]: B′ (B′ = ≥5X to <10X)
- EC50 [1]: 1 to 10 µM
- CFTR R1162X ACTIVITY Fold 10 μM G-418 [2]: C′ (C′ = <5X)
- EC50 [2]: 1 to 10 µM

SMILES: Cc1cccc(C)c1COc1ccc(N2CC(CO)OC2=O)c2ccccc12 (centres unmarked) [3-[4-[(2,6-dimethylphenyl)methoxy]-1-naphthyl]-5-(hydroxymethyl)oxazolidin-2-one]
- EC50 [1]: > 10 µM
- CFTR R1162X ACTIVITY Fold 10 μM G-418 [2]: C′ (C′ = <5X)
- EC50 [2]: > 10 µM

SMILES: Cc1cccc(C)c1COc1ccc(N2CC(CO)OC2=O)cc1 (centres unmarked) [3-[4-[(2,6-dimethylphenyl)methoxy]phenyl]-5-(hydroxymethyl)oxazolidin-2-one]
- CFTR G542X ACTIVITY Fold 10 μM G-418 [1]: B′ (B′ = ≥5X to <10X)
- EC50 [1]: 1 to 10 µM
- CFTR R1162X ACTIVITY Fold 10 μM G-418 [2]: A′ (A′ = ≥10X)
- EC50 [2]: > 10 µM

SMILES: O=C1OC(CO)CN1c1ccc(OCc2cc(Cl)cc(Cl)c2)cc1 (centres unmarked) [3-[4-[(3,5-dichlorophenyl)methoxy]phenyl]-5-(hydroxymethyl)oxazolidin-2-one]
- CFTR G542X ACTIVITY Fold 10 μM G-418 [1]: B′ (B′ = ≥5X to <10X)
- EC50 [1]: 1 to 10 µM
- CFTR R1162X ACTIVITY Fold 10 μM G-418 [2]: B′ (B′ = ≥5X to <10X)
- EC50 [2]: > 10 µM

SMILES: O=C1OC(CO)CN1c1ccc(CCc2c(Cl)cccc2Cl)cn1 (centres unmarked) [3-[5-[2-(2,6-dichlorophenyl)ethyl]-2-pyridyl]-5-(hydroxymethyl)oxazolidin-2-one]
- CFTR G542X ACTIVITY Fold 10 μM G-418 [1]: B′ (B′ = ≥5X to <10X)
- EC50 [1]: 1 to 10 µM
- CFTR R1162X ACTIVITY Fold 10 μM G-418 [2]: A′ (A′ = ≥10X)
- EC50 [2]: > 10 µM
